{
  "source": "patent US9463189B2",
  "about": "(BPV Holdings, LLC, priority 2007, dated 2016)",
  "assay_type_in_all_cases": "in vivo, C57B1/6J mice",
  "key": {"[1]": {"tested_on": "NASH mice", "assay": "Hepatic steatosis / lipid accumulation in liver, Oil Red O stain image analysis", "excerpt": "(§1) Early Steatosis Model: C57B1/6J mice (22-39 days old) mice were used for the study. Mice were fed normal chow food (Lab Diet, 5P14Prolab Animal Diet, PMI Nutritional International, Brentwood, Mo., Cat# RMH 2500) or 58% high fat diet (HFD, 58 kcal % fat and corn starch with purple dye, Research Diets, New Brunswick, N.J., Cat# D12330 equivalent to Western diet) for 120-150 days. […] This group is referred to as the HFD-low body group in FIG. 1A (insulin & liver fat accumulation˜normal). On the other hand, one fifth of the mice gained 60-70% higher body weight (compared to normal chow fed mice) while on the same HFD diet (NASH group, very high insulin and liver fat) further shown in FIG. 1A. The majority of the mice (three fifths) gained body weight as expected on the HFD (30-40% higher than the normal chow fed mice) and is referred to as the DIO group (normal to moderately high insulin and liver fat accumulation) as shown in FIG. 1A. Control animals (n=5) representative of the HFD-low body weight and the NASH groups were sacrificed prior to starting the rest of the animals on treatment with the Compound 2 (5 or 10 mg/Kg/day). Liver, white adipose and muscle from the sacrificed mice were collected for histology performed on the liver tissue.\n(§2) The development of NASH was further confirmed using histological analyses of liver. The sections were analyzed for 1) hepatic steatosis 2) necroinflammation, and 3) fibrosis. Histological analyses of hepatic steatosis was assessed by quantitative image analysis of Oil Red O stain in liver sections and defined as the percentage of Oil Red ‘O’ positive area relative to the total image area.\nFollowing 120-150 days on the HFD, mice in the NASH group were treated with Compound 2 (5 or 10 mg/Kg/day) or vehicle (10% Encapsin) for 42 days. Fasting and post prandial (PP) blood draws were taken at the beginning of the study (compound treatment) to identify and confirm the NASH group and during the study to evaluate various pharmacological responses. Since the NASH mice are severely hyperinsulinemic compared to NC mice, glucose tolerance testing (GTT, measures peripheral insulin resistance) was performed to evaluate the effect of Compound 2 on improvement of peripheral insulin sensitivity. Treatment was administered for 42 days (separate experiments). Body weight and food intake was measured throughout the study.\nStaining was prepared with Oil Red ‘O’ that stains fat deposits red on frozen tissues where positive staining indicates lipid accumulation. Trichrome staining was used to illuminate fibrosis; collagen deposits appear blue and positive staining indicates fibrosis."}, "[2]": {"tested_on": "NASH mice", "assay": "Hepatic fibrosis, Trichrome staining of liver sections", "excerpt": "Early Steatosis Model: C57B1/6J mice (22-39 days old) mice were used for the study. Mice were fed normal chow food (Lab Diet, 5P14Prolab Animal Diet, PMI Nutritional International, Brentwood, Mo., Cat# RMH 2500) or 58% high fat diet (HFD, 58 kcal % fat and corn starch with purple dye, Research Diets, New Brunswick, N.J., Cat# D12330 equivalent to Western diet) for 120-150 days. […] This group is referred to as the HFD-low body group in FIG. 1A (insulin & liver fat accumulation˜normal). On the other hand, one fifth of the mice gained 60-70% higher body weight (compared to normal chow fed mice) while on the same HFD diet (NASH group, very high insulin and liver fat) further shown in FIG. 1A. […]\nas §2\nFollowing 120-150 days on the HFD, mice in the NASH group were treated with Compound 2 (5 or 10 mg/Kg/day) or vehicle (10% Encapsin) for 42 days. […] Body weight and food intake was measured throughout the study. […]"}, "[3]": {"tested_on": "NASH mice", "assay": "Macrophage infiltration in liver, F4/80 staining", "method": "NASH-induced inflammation and lipid accumulation in the liver promotes infiltration of monocytes from peripheral circulation into the liver. Hepatic inflammatory status of NASH mice was assessed by histological assessment of the presence of macrophage specific markers including F4/80 in liver sections. An F4/80 antibody stain used is to quantitatively differentiate monocyte/macrophage cell population in the blood and tissue: infiltrating monocytes are F4/80 bright whereas liver macrophages (Kupffer cells) are F4/80 dull. There was a striking increase in the number of F4/80 bright macrophages in the liver of the NASH mice (data not shown) that is attenuated by treatment with Compound 2 (42 days, 5 mg/Kg/day) treated NASH (FIG. 4).\nF4/80 stain was used to illustrate macrophage infiltration in liver tissue. The following protocol was followed: • 1. Check the number of sections per slide; if there is 1 section then use 2 slides from the same group per staining run (1 for ctrl IgG and 1 for primary antibody of interest). If there are 2 sections per slide then use 1 slide per group per run and separate the sections using a PAP pen. • 2. De-paraffin slides through 3×5-minutes Propar clearant, and re-hydrate with 5-minutes each in decreased concentrations of reagent alcohol to water (100%, 95%, 75%, water). • 3. Use Citrate buffer pH 6.0 for HIER (heat-induced epitope retrieval). […]"}, "[4]": {"tested_on": "TGFβ-1", "assay": "TGFβ-1 levels in liver lysates of NASH mice", "excerpt": "as §1, with “Liver, white adipose and muscle from the sacrificed mice were collected for histology performed on the liver tissue.” left out\nFollowing 120-150 days on the HFD, mice in the NASH group were treated with Compound 2 (5 or 10 mg/Kg/day) or vehicle (10% Encapsin) for 42 days. […] Body weight and food intake was measured throughout the study."}, "[5]": {"conditions": "oral administration, NASH mice, summary"}},
  "note": "Where a name gives a salt, the structure may show the parent alone.",
  "data": [
    {"compound": "C[C@@H]1CN(Cc2ccc(OC(F)(F)F)cc2)C[C@H](C)N1S(=O)(=O)c1cccc2c1C[C@@H](C(=O)O)C2", "note": "[Compound 2, (S)-4-[cis-2,6-Dimethyl-4-(4-trifluoromethoxy-benzyl)-piperazine-1-sulfonyl]-indan-2-carboxylic acid tosylate]", "values": [
      {"measurement": "fat accumulation in the livers of treated vs. non-treated NASH mice", "setting": "[1]; 42 days of 10 mg/kg/day", "value": "reduced fat accumulation"},
      {"measurement": "Percent Field Area, Lipid (stained oil deposits)", "setting": "[1]; HFD + Compound 2, 10 mg/kg, 42 days, liver sections, HFD + Vehicle 47.7% +/− 5.5", "value": 16.0, "unit": "% +/− 7.6"},
      {"measurement": "Percent Field Area, Cytoplasm", "setting": "[1]; HFD + Compound 2, 10 mg/kg, 42 days, liver sections, HFD + Vehicle 91% +/− 2.4", "value": 38.6, "unit": "% +/− 2.3"},
      {"measurement": "reduced lipid accumulation in the liver", "setting": "[1]; oral administration, NASH mice, p<0.03 vs. vehicle", "value": 32, "unit": "%"},
      {"measurement": "attenuation of progression of fibrosis, Trichrome staining of liver sections", "setting": "[2]; 10 mg/Kg/day, p<0.03, FIG. 3B", "value": 41, "unit": "%"},
      {"measurement": "progression to fibrosis measured by histological presence of collagen deposits in the liver", "setting": "[2]; [5]", "value": "attenuated progression to fibrosis"},
      {"measurement": "number of F4/80 bright macrophages in the liver of the NASH mice", "setting": "[3]; 42 days, 5 mg/Kg/day, FIG. 4", "value": "attenuated"},
      {"measurement": "macrophage infiltration in the liver", "setting": "[3]; [5]", "value": "attenuated macrophage infiltration"},
      {"measurement": "decrement of TGFβ levels in the liver lysates", "setting": "[4]; 10 mg/Kg/day, p<0.01, FIG. 3A", "value": 49, "unit": "%"},
      {"measurement": "levels of inflammatory marker TGFβ-1", "setting": "[4]; oral administration, NASH mice, p<0.05 vs. vehicle", "value": "normalized levels"}
    ]}
  ]
}
